Residue numbers refer to the chain shown, from its start.
Key:
DgoR (WT DgoR-6XHis) [1] = molecular target: T1, DgoR (WT DgoR-6XHis) (Escherichia coli, UniProt P31460); assay: label-free microscale thermophoresis; assay type: binding
T1 sequence (P31460 1-229): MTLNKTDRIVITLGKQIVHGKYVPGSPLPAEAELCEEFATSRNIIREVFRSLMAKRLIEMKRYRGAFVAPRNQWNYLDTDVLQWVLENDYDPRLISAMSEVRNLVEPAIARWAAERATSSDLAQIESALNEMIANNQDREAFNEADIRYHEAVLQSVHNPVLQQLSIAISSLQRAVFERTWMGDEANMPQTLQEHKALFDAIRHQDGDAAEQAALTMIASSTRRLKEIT

DgoR (WT DgoR-6XHis) [2] = molecular target: T2, DgoR (WT DgoR-6XHis) (Escherichia coli, UniProt P31460, A97V); assay: label-free microscale thermophoresis; assay type: binding
T2 sequence (P31460 1-229 A97V): T1 sequence (P31460 1-229) with A97V

DgoR (WT DgoR-6XHis) [3] = molecular target: T3, DgoR (WT DgoR-6XHis) (Escherichia coli, UniProt P31460, S171L); assay: label-free microscale thermophoresis; assay type: binding
T3 sequence (P31460 1-229 S171L): T1 sequence (P31460 1-229) with S171L

DgoR (WT DgoR-6XHis) [4] = molecular target: T4, DgoR (WT DgoR-6XHis) (Escherichia coli, UniProt P31460, M188I); assay: label-free microscale thermophoresis; assay type: binding
T4 sequence (P31460 1-229 M188I): T1 sequence (P31460 1-229) with M188I

[5] = molecular target: DgoR-6XHis (wild-type DgoR, transcriptional repressor of D-galactonate metabolism in Escherichia coli) (Escherichia coli) (UniProt P31460); assay: SEC

Kd (DgoR (WT DgoR-6XHis) [1])	Kd (DgoR (WT DgoR-6XHis) [2])	Kd (DgoR (WT DgoR-6XHis) [3])	Kd (DgoR (WT DgoR-6XHis) [4])	stoichiometry N [5]	Compound
8.4 ± 1.3 µM	3.3 ± 0.3 µM	20.1 ± 0.6 µM	11.3 ± 0.9 µM		O=C(O)[C@H](O)[C@@H](O)[C@@H](O)[C@H](O)CO [D-galactonate]
				2	DgoR-6XHis (wild-type DgoR, transcriptional repressor of D-galactonate metabolism in Escherichia coli) (from UniProt P31460 1-229) (natural protein)
